Values quoted from earlier work, collected in the Kinase Knowledgebase extract (Sharma et al. 2016).

Tests used:
CDK2 (human) = CDK2 (human) (UniProt P24941); experiment: Enzyme Assay
EGFR = EGFR (UniProt P00533); experiment: EGFr Inhibition
EGFR, sequence (P00533 whole entry, looked up): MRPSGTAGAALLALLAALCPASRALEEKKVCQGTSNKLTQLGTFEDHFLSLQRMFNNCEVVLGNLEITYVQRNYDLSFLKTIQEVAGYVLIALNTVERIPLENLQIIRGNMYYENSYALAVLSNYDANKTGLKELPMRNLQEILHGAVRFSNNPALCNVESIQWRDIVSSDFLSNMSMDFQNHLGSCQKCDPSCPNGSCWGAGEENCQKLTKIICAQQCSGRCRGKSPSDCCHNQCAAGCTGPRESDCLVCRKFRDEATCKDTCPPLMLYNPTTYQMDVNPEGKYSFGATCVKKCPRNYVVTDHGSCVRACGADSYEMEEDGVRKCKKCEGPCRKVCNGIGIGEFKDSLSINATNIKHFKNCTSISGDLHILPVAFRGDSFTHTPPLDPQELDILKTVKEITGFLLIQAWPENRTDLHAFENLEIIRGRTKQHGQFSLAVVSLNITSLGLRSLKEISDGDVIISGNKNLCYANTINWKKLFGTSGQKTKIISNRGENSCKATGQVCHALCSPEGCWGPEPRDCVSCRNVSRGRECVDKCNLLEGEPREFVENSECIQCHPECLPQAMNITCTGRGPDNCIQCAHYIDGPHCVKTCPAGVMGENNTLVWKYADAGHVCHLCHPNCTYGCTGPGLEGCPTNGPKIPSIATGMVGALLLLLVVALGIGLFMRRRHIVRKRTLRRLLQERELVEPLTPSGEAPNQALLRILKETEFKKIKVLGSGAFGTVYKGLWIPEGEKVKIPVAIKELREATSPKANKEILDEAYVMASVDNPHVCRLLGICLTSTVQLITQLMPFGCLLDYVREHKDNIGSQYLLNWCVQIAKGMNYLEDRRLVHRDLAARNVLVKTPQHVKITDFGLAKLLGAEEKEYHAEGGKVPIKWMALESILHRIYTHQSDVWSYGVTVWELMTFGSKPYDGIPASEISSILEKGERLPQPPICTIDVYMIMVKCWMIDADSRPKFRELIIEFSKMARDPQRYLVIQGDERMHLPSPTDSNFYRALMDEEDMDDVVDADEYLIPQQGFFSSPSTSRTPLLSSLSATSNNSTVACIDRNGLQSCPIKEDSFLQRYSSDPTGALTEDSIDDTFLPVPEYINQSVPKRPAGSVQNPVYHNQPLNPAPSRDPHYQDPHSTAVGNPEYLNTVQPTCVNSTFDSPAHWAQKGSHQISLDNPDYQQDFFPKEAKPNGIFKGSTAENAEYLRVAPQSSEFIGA

SMILES | IC50 (CDK2 (human)) [nM] | IC50 (EGFR) [nM]
O=C1Nc2ccc3ncsc3c2C1=CNc1ccc(S(=O)(=O)NCO)cc1 | 4.68 | 
CNS(=O)(=O)Cc1ccc(NC=C2C(=O)Nc3ccc4ncsc4c32)cc1 | 26.3 | 
NS(=O)(=O)c1ccc(NN=C2C(=O)Nc3ccc(C(=O)NCCn4ccnc4)cc32)cc1 | 25.1 | 
CCOC(=O)c1ccc(Nc2ncc3cc(-c4c(Cl)cccc4Cl)c(=O)n(C)c3n2)cc1 |  | 75000
O=C1Nc2ccccc2C1=CNc1ccc(-c2cnco2)c2c1CS(=O)(=O)C2 | 8.91 | 

Now from value to compound:

IC50 (CDK2 (human)) [nM] | IC50 (EGFR) [nM] | SMILES
 | 15000 | CC(C)(C)OC(=O)Nc1ccc(Nc2n[nH]c3ncnc(Nc4cccc(Cl)c4)c23)cc1
3.31 |  | CC(C)Oc1cccc2c1C(=NNc1ccc(S(N)(=O)=O)cc1)C(=O)N2
 | 75000 | Cn1c(=O)c(-c2c(Cl)cccc2Cl)cc2cnc(NC3CCCCC3)nc21
 | 75000 | Cn1c(=O)c(-c2c(Cl)cccc2Cl)cc2cnc(NCc3ccccc3)nc21
